Experiments:
[1] = test system: Prostate carcinoma CRL 1435 (PC-3); test: MTT proliferation assay, prostate carcinoma PC-3; format: cell-based; conditions: Homo sapiens, treatment initially, after 48 hours, 10% FBS, read-out: Mean Percent Inhibition of Growth
Procedure: (§1) Human malignant cell lines were obtained from American Type Tissue Culture Collection (Rockville, Md.). Melanoma cells lines CRL 1585 and 1619 were cultured in RPMI 1640 (GIBCO-BRL, Life Technologies, Grand Island, N.Y.) with 10% FBS and passed with nonenzymatic Cell Dissociation Solution® (Sigma). The prostate adenocarcinoma cell line CRL 1435 (PC-3) was also cultured in RPMI 1640 with 10% FBS but passed with 0.05% trypsin and 0.53 mM EDTA. The squamous lung carcinoma NCI-H520 and the adenosquamous lung carcinoma NCI-H596 cell lines were grown in RPMI 1640 supplemented with 10% FBS, 10 mM HEPES and 1.0 mM sodium pyruvate and passed with trypsin/EDTA. The small cell lung carcinoma NCI-H82 was cultured as a suspension in RPMI 1640 with 10% FBS. All of the above were grown in a 37° C. humidified environment containing 5% CO2/air. The breast carcinoma cell line MDA-MB-453 was grown in a 37° C. humidified environment with free gas exchange with atmospheric air using Leibovitz's L-15 medium with 2 mM L-glutamine and 10% FBS and was passed with trypsin/EDTA.
The effect of disulfiram (0.15 to 5.0 μM), diethyldithiocarbamate (DDC, 1.0 μM) or PDTC (0.625 to 5.0 μM) on proliferation of malignant cell lines was studied in cultures stimulated with 10% FBS. Cell numbers were quantitated 24-72 hours later. In some experiments disulfiram or PDTC were added immediately after cells were plated. In other experiments, cells were plated and allowed to grow for 24-72 hours before fresh media with disulfiram or PDTC was added, and cell numbers were assayed 24-72 hours later. […]
Proliferation of cultured cells was quantitated using a previously reported calorimetric method based upon metabolic reduction of the soluble yellow tetrazolium dye 3-[4,5-dimethylthiazol]-2yl-2,5-diphenyl tetrazolium bromide (MTT) to its insoluble purple formazan by the action of mitochondrial succinyl dehydrogenase (See, e.g., S. J. Hirst, et al., “Quantifying proliferation of cultured human and rabbit airway smooth muscle in response to serum and platelet derived growth factor,” Am. J. Respir. Cell Mol. Biol. 7:574-581 (1992); R. Dashtaki, et al. R., supra; S. S. Brar, et al., “Requirement for reactive oxygen species in serum-induced and platelet-derived growth factor-induced growth of airway smooth muscle,” J. Biol. Chem. 274:20017-20026 (1999)). […] MTT-containing medium was removed, 0.5 ml dimethylsulfoxide (DMSO) was added to each well, and the absorbance of the solubilized purple formazan dye was measured at 540 nm. […]

[2] = test system: M1619 melanoma cells; test: MTT proliferation assay, M1619 melanoma; format: cell-based, human
Procedure: as §1
The effect of disulfiram (0.15 to 5.0 μM), diethyldithiocarbamate (DDC, 1.0 μM) or PDTC (0.625 to 5.0 μM) on proliferation of malignant cell lines was studied in cultures stimulated with 10% FBS. Cell numbers were quantitated 24-72 hours later. In some experiments disulfiram or PDTC were added immediately after cells were plated. In other experiments, cells were plated and allowed to grow for 24-72 hours before fresh media with disulfiram or PDTC was added, and cell numbers were assayed 24-72 hours later.
Finally, a number of dithiocarbamate effects on cells have been attributed to increasing the intracellular levels of copper ions. To further probe the role of copper in mediating cytotoxicity from disulfiram, cells were cultured with or without addition of the impermeate Cu^2+ chelator bathocuprioinedisulfonic acid (BCPS, 100 μM) added to medium to sequester Cu^2+ in the extracellular compartment. Cells were also treated 12 hours with various concentration of disulfiram (0.625 to 5.0 μM) and intracellular copper levels were measured as outlined below.
Proliferation of cultured cells was quantitated using a previously reported calorimetric method based upon metabolic reduction of the soluble yellow tetrazolium dye 3-[4,5-dimethylthiazol]-2yl-2,5-diphenyl tetrazolium bromide (MTT) to its insoluble purple formazan by the action of mitochondrial succinyl dehydrogenase (See, e.g., S. J. Hirst, et al., “Quantifying proliferation of cultured human and rabbit airway smooth muscle in response to serum and platelet derived growth factor,” Am. J. Respir. Cell Mol. Biol. 7:574-581 (1992); R. Dashtaki, et al. R., supra; S. S. Brar, et al., “Requirement for reactive oxygen species in serum-induced and platelet-derived growth factor-induced growth of airway smooth muscle,” J. Biol. Chem. 274:20017-20026 (1999)). This assay empirically distinguishes between dead and living cells. For proliferation studies, cells were seeded into 24-well uncoated plastic plates (Costar) at 50,000 cells per well and cultured with respective media and mitogens.

IC50 ([2]; Homo sapiens, M1619, grown 24 hours, additional 24 hours, no added CuSO4, read-out: 50% inhibitory (IC50) concentration): 625 nM
SMILES: CCN(CC)C(=S)SSC(=S)N(CC)CC [Disulfiram, tetraethylthiuram disulfide]
inhibition at 0.625 µM ([1]; disulfiram 0.625 μM): 6 ± 6%
inhibition at 1.25 µM ([1]; disulfiram 1.25 μM): 29 ± 5%
inhibition at 2.5 µM ([1]; disulfiram 2.5 μM): 48 ± 2%
inhibition at 5 µM ([1]; disulfiram 5.0 μM): 86 ± 2%
inhibition at 0.625 µM ([2]; Homo sapiens, disulfiram 0.625 μM, treatment after 24 hours of growth, read-out: Mean Percent Inhibition of Growth): 59 ± 4%
inhibition at 1.25 µM ([2]; Homo sapiens, disulfiram 1.25 μM, treatment after 24 hours of growth, read-out: Mean Percent Inhibition of Growth): 35 ± 4%
inhibition at 2.5 µM ([2]; Homo sapiens, disulfiram 2.5 μM, treatment after 24 hours of growth, read-out: Mean Percent Inhibition of Growth): 39 ± 3%
inhibition at 5 µM ([2]; Homo sapiens, disulfiram 5.0 μM, treatment after 24 hours of growth, read-out: Mean Percent Inhibition of Growth): 37 ± 4%
100% inhibitory (IC100) concentration ([2]; M1619, with 0.2 μM CuSO4 added to medium, grown 24 hours, additional 24 hours): 0.625 µM
growth in vitro of M1619 melanoma ([2]; added at plating, 24 hours): potent inhibitor of growth
A540 of MTT Formazan ([2]; disulfiram 0.6 μM + carmustine 1 μM, 24 hours): 0.042 ± 0.003^C
A540 of MTT Formazan ([2]; disulfiram 0.6 μM + carmustine 10 μM, 24 hours): 0.025 ± 0.002^C
A540 of MTT Formazan ([2]; disulfiram 0.6 μM + carmustine 100 μM, 24 hours): 0.030 ± 0.023
A540 of MTT Formazan ([2]; disulfiram 0.6 μM + carmustine 1,000 μM, 24 hours): 0.004 ± 0.000
A540 of MTT Formazan ([2]; disulfiram 2.5 μM + cisplatin 1 ng/ml, added after 48 hours, additional 24 hours): 1.369 ± 0.033^B
A540 of MTT Formazan ([2]; disulfiram 2.5 μM + cisplatin 10 ng/ml, added after 48 hours, additional 24 hours): 1.221 ± 0.028
A540 of MTT Formazan ([2]; disulfiram 2.5 μM + cisplatin 100 ng/ml, added after 48 hours, additional 24 hours): 1.183 ± 0.038^A
A540 of MTT Formazan ([2]; disulfiram 2.5 μM + cisplatin 1,000 ng/ml, added after 48 hours, additional 24 hours): 0.921 ± 0.027^A

— US6548540B2, “Method of treating cancer using dithiocarbamate derivatives” (Charlotte-Mecklenburg Hospital Authority, priority 1998, dated 2003)
